Structures are written as SMILES. Counter-ions that a name gives are not always drawn. Like-named read-outs stand apart in the source and are kept apart here.

Data on 16 molecules can be found in US20050043378A1, “LTA4H modulators” (priority 2003, published 2005).

Experiment [1] concerns neutrophil influx (myeloperoxidase, MPO). Description: Murine arachidonic acid-induced inflammation model: neutrophil influx (myeloperoxidase activity in ear biopsies). To be noted: Mus musculus, read-out: % Inh. MPO. The experiment is classed as in vivo, female Balb/c mice.
Experiment [2] relates to ex vivo stimulated LTB4 production in blood. The experiment can be described thus: Murine arachidonic acid-induced inflammation model: ex vivo stimulated LTB4 production. On the set-up: species or system female Balb/c mice. To be noted: Mus musculus, read-out: % Inh. LTB4.
Experiment [3] has as its system LTB4 production by calcium ionophore-stimulated murine blood. Description: LTB4 production by calcium ionophore-stimulated murine blood for LTA4H inhibitor activity. The experiment is classed as cell-based, CD-1 mice.
Experiment [4] addresses T1, recombinant human LTA4 hydrolase (rhLTA4H) (Homo sapiens, UniProt P09960).
T1 construct: made in house; host or cells: Spodoptera frugiperda (Sf-9) cells, baculovirus (pFastBac1)
T1 sequence (P09960 1-611): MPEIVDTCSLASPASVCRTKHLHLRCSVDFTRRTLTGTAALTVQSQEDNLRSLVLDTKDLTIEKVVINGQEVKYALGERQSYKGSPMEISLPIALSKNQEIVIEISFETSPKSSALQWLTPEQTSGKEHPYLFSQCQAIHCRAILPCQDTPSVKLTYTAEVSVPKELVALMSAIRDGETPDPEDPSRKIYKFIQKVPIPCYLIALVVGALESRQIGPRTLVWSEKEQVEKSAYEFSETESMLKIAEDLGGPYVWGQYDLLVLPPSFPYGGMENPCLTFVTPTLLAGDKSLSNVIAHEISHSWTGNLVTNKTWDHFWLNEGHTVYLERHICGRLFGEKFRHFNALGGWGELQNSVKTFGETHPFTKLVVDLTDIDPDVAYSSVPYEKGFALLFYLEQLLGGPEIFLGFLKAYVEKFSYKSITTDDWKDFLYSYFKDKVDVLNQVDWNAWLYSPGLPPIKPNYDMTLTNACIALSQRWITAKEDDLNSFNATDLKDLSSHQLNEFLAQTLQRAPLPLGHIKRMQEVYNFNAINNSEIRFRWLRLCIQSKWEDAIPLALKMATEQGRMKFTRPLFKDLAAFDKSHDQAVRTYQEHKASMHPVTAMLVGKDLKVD
The experiment can be described thus: Recombinant human LTA4 hydrolase assay for LTA4 hydrolase inhibitor activity.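 Further: enzyme expressed in Sf-9 insect cells, compound preincubated 10 min with enzyme, 10 min reaction at room temperature, uninhibited reaction as positive control, enzyme-free blank as negative control.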 The experiment is classed as biochemical. To be noted: LTA4 substrate, LTB4 by immunoassay, average of one to three determinations.

For a further experiment, the system named is colitis symptoms. To be noted: eight weeks of treatment, cotton top tamarins; cited from earlier work.
Experiment [5] relates to ionophore-induced LTB4 production in mouse blood. The following applies: oral administration; cited from earlier work.
The test system of experiment [6] is ionophore-induced LTB4 production in rat peritoneum. To be noted: oral administration; cited from earlier work.
The mark [7] stands for this setting: 30 mg/kg oral gavage 60 min before topical arachidonic acid to ear, ear biopsies after 3 h, vs animals without inhibitor.
Setting [8] is: 30 mg/kg oral gavage, blood taken 3 h after arachidonic acid, ex vivo A23187 stimulation, vs animals without inhibitor.
[9] abbreviates: diluted CD-1 mouse whole blood, A23187 stimulation, LTB4 by immunoassay, read-out: IC50.

The IC50 is the concentration that gives 50% inhibition. For the molecule `OC1CCN(CCOc2ccc(Oc3nc4ccccc4o3)cc2)CC1` [Example 14, 1-{2-[4-(Benzooxazol-2-yloxy)-phenoxy]-ethyl}-piperidin-4-ol], the inhibition in vivo at 30 mg/kg in experiment [1] (setting [7]) turned out to be 56%. Besides, the inhibition at 30 mg/kg in experiment [2] (setting [8]) is 81%. Moreover, the IC50 in experiment [3] (Mus musculus) amounted to 89 nM.

As for `O=C(O)C1CCN(CCOc2ccc(Oc3nc4ccccc4s3)cc2)CC1` [Example 18, 1-{2-[4-(Benzothiazol-2-yloxy)-phenoxy]-ethyl}-piperidine-4-carboxylic acid potassium salt], the IC50 in experiment [4] worked out at 6 nM; in experiment [3] (Mus musculus), 162 nM. In experiment [1] (po, 3 h), the inhibition in vivo at 30 mg/kg came out at 83%. Also, in experiment [2] (po, 3 h), the inhibition at 30 mg/kg turned out to be 78%.

On to `OC1(c2ccccc2)CCN(CCCOc2ccc(Oc3nc4ccccc4o3)cc2)CC1` [Example 27, 1-{3-[4-(Benzooxazol-2-yloxy)-phenoxy]-propyl}-4-phenyl-piperidin-4-ol], for which the IC50 in experiment [4] was found to be 7 nM; in experiment [3] (Mus musculus), 143 nM. In addition, in experiment [1] (setting [7]), the inhibition in vivo at 30 mg/kg is 72%. Also, in experiment [2] (po, 3 h), the inhibition at 30 mg/kg was 50%.

On to `O=C(O)C1CCN(CCc2ccc(Oc3nc4ccccc4s3)cc2)CC1` [Example 150, 1-{2-[4-(Benzothiazol-2-yloxy)-phenyl]-ethyl}-piperidine-4-carboxylic acid], for which the figures for the IC50 in experiment [4] and in experiment [3] (setting [9]) were 1 nM and 52 nM, respectively. Also, in experiment [1] (setting [7]), the inhibition in vivo at 30 mg/kg turned out to be 91%. Besides, the inhibition at 30 mg/kg in experiment [2] (setting [8]) was 81%.

Consider `O=C(O)C1CCCN(CCc2ccc(Oc3nc4ccccc4s3)cc2)C1` (centres unmarked) [Example 155, 1-{2-[4-(Benzothiazol-2-yloxy)-phenyl]-ethyl}-piperidine-3-carboxylic acid], for which the IC50 stood at 9 nM in experiment [4] and 127 nM in experiment [3] (setting [9]). The inhibition in vivo at 30 mg/kg in experiment [1] (setting [7]) amounted to 93%. In addition, the inhibition at 30 mg/kg in experiment [2] (setting [8]) was 96%.

On to `O=C(O)CCN(CCc1ccc(Oc2nc3ccccc3s2)cc1)CC1CC1` [Example 180, 3-({2-[4-(Benzothiazol-2-yloxy)-phenyl]-ethyl}-cyclopropylmethyl-amino)-propionic acid], for which the values for the IC50 in experiment [4] and in experiment [3] (setting [9]) were 2 nM and 15 nM, respectively. The inhibition in vivo at 30 mg/kg in experiment [1] (setting [7]) stood at 87%. Further, in experiment [2] (setting [8]), the inhibition at 30 mg/kg came out at 87%.

On to `c1ccc2sc(Oc3ccc(OCCn4nnnc4C4CCNCC4)cc3)nc2c1` [Example 206, 2-{4-[2-(5-Piperidin-4-yl-tetrazol-1-yl)-ethoxy]-phenoxy}-benzothiazole], for which the IC50 in experiment [4] came to 4 nM; in experiment [3] (setting [9]) it was 43 nM. Besides, the inhibition in vivo at 30 mg/kg in experiment [1] (setting [7]) was 76%. In addition, the inhibition at 30 mg/kg in experiment [2] (setting [8]) was 67%.

With `OCC1CCCCN1CCOc1ccc(Oc2nc3ccccc3s2)cc1` (centres unmarked) [Example 263, (1-{2-[4-(Benzothiazol-2-yloxy)-phenoxy]-ethyl}-piperidin-2-yl)-methanol], the IC50 in experiment [4] is 5 nM; in experiment [3] (setting [9]), 49 nM. The inhibition in vivo at 30 mg/kg in experiment [1] (setting [7]) was determined as 19%. Further, the inhibition at 30 mg/kg in experiment [2] (setting [8]) stood at 0%.

`O=C(CO)N1CCN(CCc2ccc(Oc3nc4ccccc4s3)cc2)CC1` [Example 325, 1-(4-{2-[4-(Benzothiazol-2-yloxy)-phenyl]-ethyl}-piperazin-1-yl)-2-hydroxy-ethanone]: the IC50 in experiment [4] was found to be 12 nM. Also, the inhibition in vivo at 30 mg/kg in experiment [1] (setting [7]) was 67%. Besides, in experiment [2] (setting [8]), the inhibition at 30 mg/kg was 76%.

For `O=C1C[C@H](O)CN1C1CCN(CCc2ccc(Oc3nc4ccccc4s3)cc2)CC1` [Example 336, (S)-1-(1-{2-[4-(Benzothiazol-2-yloxy)-phenyl]-ethyl}-piperidin-4-yl)-4-hydroxy-pyrrolidin-2-one], the IC50 in experiment [4] was determined as 24 nM; in experiment [3] (setting [9]) it was 153 nM. For the same molecule, the inhibition in vivo at 30 mg/kg in experiment [1] (setting [7]) amounted to 0%. Moreover, the inhibition at 30 mg/kg in experiment [2] (setting [8]) was 67%.

On to `OCC1CCN(Cc2ccc(Oc3nc4ccccc4s3)cc2)CC1` [Example 360, {1-[4-(Benzothiazol-2-yloxy)-benzyl]-piperidin-4-yl}-methanol], for which the IC50 came to 33 nM in experiment [4] and 246 nM in experiment [3] (setting [9]). Moreover, in experiment [1] (setting [7]), the inhibition in vivo at 30 mg/kg worked out at 88%. In addition, the inhibition at 30 mg/kg in experiment [2] (setting [8]) was found to be 87%.

Consider `CS(=O)(=O)NC1CCN(Cc2ccc(Oc3nc4ccccc4s3)cc2)CC1` [Example 361, N-{1-[4-(Benzothiazol-2-yloxy)-benzyl]-piperidin-4-yl}-methanesulfonamide], for which the IC50 in experiment [4] was found to be 8 nM. The inhibition in vivo at 30 mg/kg in experiment [1] (setting [7]) amounted to 90%. The inhibition at 30 mg/kg in experiment [2] (setting [8]) is 86%.

`O=C1C[C@@H](O)CN1C1CCN(Cc2ccc(Oc3nc4ccccc4s3)cc2)CC1` [Example 446, 1-{1-[4-(Benzothiazol-2-yloxy)-benzyl]-piperidin-4-yl}-4-hydroxy-pyrrolidin-2-one]: the results for the IC50 in experiment [4] and in experiment [3] (setting [9]) were 8 nM and 131 nM, respectively. For the same molecule, the inhibition in vivo at 30 mg/kg in experiment [1] (setting [7]) is 43%. In experiment [2] (setting [8]), the inhibition at 30 mg/kg is 64%.

Turning to `O=C1C[C@H](O)CN1C1CCN(Cc2ccc(Oc3nc4ccccc4s3)cc2)CC1` [Example 447, 1-{1-[4-(Benzothiazol-2-yloxy)-benzyl]-piperidin-4-yl}-4-hydroxy-pyrrolidin-2-one], the IC50 in experiment [4] was 28 nM; in experiment [3] (setting [9]) it was 240 nM. The inhibition in vivo at 30 mg/kg in experiment [1] (setting [7]) amounted to 48%. In experiment [2] (setting [8]), the inhibition at 30 mg/kg was 90%.

As for `CC(=O)N(C)C1CCN(Cc2ccc(Oc3nc4ccccc4s3)cc2)CC1` [Example 471, N-{1-[4-(Benzothiazol-2-yloxy)-benzyl]-piperidin-4-yl}-N-methyl-acetamide], the IC50 in experiment [4] turned out to be 19 nM. Besides, the inhibition in vivo at 30 mg/kg in experiment [1] (setting [7]) is 89%. Besides, the inhibition at 30 mg/kg in experiment [2] (setting [8]) is 90%.

Turning to `CN(CCCOc1ccc(Cc2ccccc2)cc1)CCC(=O)O.Cl` [SC57461], in the experiment on colitis symptoms, the colitis symptoms result is “significantly improved colitis symptoms”. For the same molecule, in experiment [5], the “inhibition of ionophore-induced LTB4 production in mouse blood ex vivo” value was “caused inhibition of ionophore-induced LTB4 production”. For the same molecule, the “inhibition of ionophore-induced LTB4 production in rat peritoneum in vivo” value in experiment [6] is reported as “caused inhibition of ionophore-induced LTB4 production”.
